Data taken from patent US9155714B2, “Compositions comprising an aromatic alcohol and a TRPV-1 antagonist, and uses thereof” (JOHNSON & JOHNSON CONSUMER INC., priority 2013, dated 2015).
Values joined by “and” are separate entries in the source; they are usually repeats but may differ in a detail not shown here. Equal entries are not always repeated. One block for each molecule: values may come before it.

Experiments:
Experiment in all cases: Calcium Flux Test, activity as TRPV-1 agonist
Format in all cases: cell-based
[1] = biological target: T1, human vanilloid receptor-1 (TRPV-1) (Homo sapiens, UniProt Q8NER1); set-up: key: **: statistically significant; n/s: not statistically significant
T1 construct: host or cells: HEK293
Procedure: (§1) The Calcium Flux Test is performed in the following manner: Recombinant HEK293 cells expressing human vanilloid receptor-1 (TRPV-1; accession number AF196175, EMD Millipore, Billerica, Mass.) are grown in D-MEM/F-12 media (Life Technologies, Grand Island, N.Y.) supplemented with 10% fetal bovine serum, 1% non essential amino acids and 400 μg/mL Geneticin (Gibco, Life Technologies). Cells are plated at a concentration of 15,000 cells per well on poly-D-lysine-coated 384 well plates and incubated overnight at 5% CO2 and 37° C. After incubation, culture media is removed from the wells and replaced with 50 μL per well of Fluo-8 No Wash dye solution (#36315, AAT Bioquest, Sunnyvale, Calif.). The Fluo-8 dye solution is prepared by mixing 20 uL of Fluo-8 NW with 30 mL of 0.33× Pluronic® F127 Plus (BASF of Ludwigshafen, Germany) in assay buffer (1×HBSS+2% of HEPES). Fluo-8 dye is incubated for 30 minutes at room temperature. Intracellular calcium (Ca^2+) flux is monitored upon exposure to aromatic alcohol in DMSO vehicle by measuring fluorescence intensity at Ex/Em 490/525 on a Functional Drug Screening System (FDSS; Hamamatsu, […]). Measurements are taken every second for a period of 4 minutes. […] Statistical differences are obtained using One Way ANOVA with Tukey Post-hoc test; statistical significance is defined as P≦0.05.
(§2) Phenoxyethanol was tested at a series of concentrations in DMSO for activity as a TRPV-1 agonist according to the Calcium Flux Test described above. Capsaicin was used as a positive control.
(§3) Maximum RFU values for treatment with phenoxyethanol or capsaisin were compared to the Maximum RFU for a DMSO vehicle alone. Concentrations of phenoxyethanol and capsaicin are reported in milimolar (mM) and nanomolar (nM), respectively.
(§4) Benzyl alcohol and sodium bicarbonate were tested using the Calcium Flux Test.
(§5) Benzyl alcohol and phenethyl alcohol were tested at a series of concentrations in DMSO for activity as a TRPV-1 agonist as described in Example 1. Concentrations of benzyl alcohol and phenethyl alcohol are reported in units of % w/v.

[2] = biological target: T1, human vanilloid receptor-1 (TRPV-1)
Procedure: as §1, §2, §3, §4, §5

[3] = biological target: T1, human vanilloid receptor-1 (TRPV-1); set-up: key: **: Statistically significant; n/s: Not statistically significant
Procedure: as §1, §2, §3, §4, §5

T1 sequence (Q8NER1 whole entry): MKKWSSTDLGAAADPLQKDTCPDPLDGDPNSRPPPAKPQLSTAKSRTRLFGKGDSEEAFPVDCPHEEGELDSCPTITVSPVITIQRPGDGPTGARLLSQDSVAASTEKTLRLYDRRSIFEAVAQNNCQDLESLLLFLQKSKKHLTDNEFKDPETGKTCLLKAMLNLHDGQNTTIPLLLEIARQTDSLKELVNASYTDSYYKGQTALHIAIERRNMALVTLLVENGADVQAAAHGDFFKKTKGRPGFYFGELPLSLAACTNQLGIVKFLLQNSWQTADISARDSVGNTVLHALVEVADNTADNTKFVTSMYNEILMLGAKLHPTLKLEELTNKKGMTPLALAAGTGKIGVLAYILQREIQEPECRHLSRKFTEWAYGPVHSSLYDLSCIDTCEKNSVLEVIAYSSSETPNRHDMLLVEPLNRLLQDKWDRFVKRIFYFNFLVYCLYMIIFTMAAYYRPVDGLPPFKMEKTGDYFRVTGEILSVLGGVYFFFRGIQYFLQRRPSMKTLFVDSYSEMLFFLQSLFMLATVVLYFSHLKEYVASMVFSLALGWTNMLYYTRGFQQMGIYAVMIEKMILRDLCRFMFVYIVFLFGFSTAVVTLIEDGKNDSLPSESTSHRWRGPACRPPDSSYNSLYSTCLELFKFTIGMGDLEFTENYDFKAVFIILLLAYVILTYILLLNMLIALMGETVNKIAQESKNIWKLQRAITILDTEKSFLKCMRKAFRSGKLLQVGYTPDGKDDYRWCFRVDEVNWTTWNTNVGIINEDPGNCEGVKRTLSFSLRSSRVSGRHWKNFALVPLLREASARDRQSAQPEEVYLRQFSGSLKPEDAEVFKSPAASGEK

P < 0.05 Compared to Vehicle ([1]; capsaicin 0.0381 nM): n/s | P < 0.05 Compared to Vehicle ([1]; capsaicin 0.1526 nM): n/s | P < 0.05 Compared to Vehicle ([1]; capsaicin 0.6104 nM): ** | P < 0.05 Compared to Vehicle ([1]; capsaicin 2 nM): ** | P < 0.05 Compared to Vehicle ([1]; capsaicin 10 nM): ** | P < 0.05 Compared to Vehicle ([1]; capsaicin 39 nM): ** | P < 0.05 Compared to Vehicle ([1]; capsaicin 156 nM): ** | P < 0.05 Compared to Vehicle ([1]; capsaicin 625 nM): ** | P < 0.05 Compared to Vehicle ([1]; capsaicin 2500 nM): ** | P < 0.05 Compared to Vehicle ([1]; capsaicin 10000 nM): ** | intracellular calcium flux in TRPV-1-transfected HEK cells (result in words) [2]: dose dependent increases | Maximum RFU (mean ± SD) ([2]; capsaicin 0.0381 nM alone): 10.19 ± 2.94 RFU | Maximum RFU (mean ± SD) ([2]; capsaicin 0.1526 nM alone): 29.34 ± 8.18 RFU | Maximum RFU (mean ± SD) ([2]; capsaicin 0.6104 nM alone): 121.32 ± 46.41 RFU | Maximum RFU (mean ± SD) ([2]; capsaicin 2 nM alone): 253.47 ± 24.63 RFU | Maximum RFU (mean ± SD) ([2]; capsaicin 10 nM alone): 348.17 ± 5.56 RFU | Maximum RFU (mean ± SD) ([2]; capsaicin 39 nM alone): 405.53 ± 11.25 RFU | Maximum RFU (mean ± SD) ([2]; capsaicin 156 nM alone): 491.07 ± 21.10 RFU | Maximum RFU (mean ± SD) ([2]; capsaicin 625 nM alone): 604.13 ± 32.46 RFU | Maximum RFU (mean ± SD) ([2]; capsaicin 2500 nM alone): 617.87 ± 34.14 RFU | Maximum RFU (mean ± SD) ([2]; capsaicin 10000 nM alone): 698.83 ± 30.57 RFU
SMILES: COc1cc(CNC(=O)CCCC/C=C/C(C)C)ccc1O [Capsaicin, capsaicin]
Maximum RFU (mean ± SD) ([2]; capsaicin 100 nM alone (0 antagonist)): 647.05 ± 33.18 RFU and 849.62 ± 7.02 RFU and 1006.91 ± 74.51 RFU | Maximum RFU (mean ± SD) ([2]; capsaicin 300 nM alone (0 nM antagonist)): 860.95 ± 33.14 RFU and 875.05 ± 55.11 RFU

intracellular calcium flux in TRPV-1-transfected HEK cells (result in words) [2]: do not Induce Calcium Flux | Maximum RFU (mean ± SD) ([2]; sodium bicarbonate 0.03125 mM): 109.99 ± 1.37 RFU | Maximum RFU (mean ± SD) ([2]; sodium bicarbonate 0.0625 mM): 102.15 ± 4.19 RFU | Maximum RFU (mean ± SD) ([2]; sodium bicarbonate 0.125 mM): 114.34 ± 6.46 RFU | Maximum RFU (mean ± SD) ([2]; sodium bicarbonate 0.25 mM): 124.90 ± 8.41 RFU | Maximum RFU (mean ± SD) ([2]; sodium bicarbonate 0.5 mM): 3.39 ± 2.66 RFU | P < 0.05 Compared to Vehicle ([3]; sodium bicarbonate 0.03125 mM): n/s | P < 0.05 Compared to Vehicle ([3]; sodium bicarbonate 0.0625 mM): n/s | P < 0.05 Compared to Vehicle ([3]; sodium bicarbonate 0.125 mM): n/s | P < 0.05 Compared to Vehicle ([3]; sodium bicarbonate 0.25 mM): ** | P < 0.05 Compared to Vehicle ([3]; sodium bicarbonate 0.5 mM): n/s
SMILES: O=C([O-])O.[Na+] [Sodium Bicarbonate, sodium bicarbonate]
